Results as given in article PMC2676116 (Molecular cancer therapeutics, 2009).

Columns and labels:
Tdp1 [1] = target: T1, Tdp1 (Homo sapiens, UniProt Q9NUW8); conditions: cited from earlier work
Tdp1 [2] = target: T1, Tdp1; experiment: Tdp1 AlphaScreen HTS assay; format: biochemical; conditions: for Tdp1 inhibition (in words): AlphaScreen primary / follow-up HTS assay, Fig. 5C
Tdp1 [3] = target: T1, Tdp1; experiment: Secondary radiolabel gel-based assay; format: biochemical; conditions: Fig. 5B & C
H493R Tdp1 mutant = H493R Tdp1 mutant (Homo sapiens, UniProt Q9NUW8, H493R); experiment: SCAN1 Tdp1 mutant covalent Tdp1-DNA intermediate; format: biochemical; conditions: for accumulation of the covalent Tdp1-DNA intermediate: 10 μM concentration, H493R Tdp1 100 nM
Chain of H493R Tdp1 mutant (Q9NUW8 whole entry H493R): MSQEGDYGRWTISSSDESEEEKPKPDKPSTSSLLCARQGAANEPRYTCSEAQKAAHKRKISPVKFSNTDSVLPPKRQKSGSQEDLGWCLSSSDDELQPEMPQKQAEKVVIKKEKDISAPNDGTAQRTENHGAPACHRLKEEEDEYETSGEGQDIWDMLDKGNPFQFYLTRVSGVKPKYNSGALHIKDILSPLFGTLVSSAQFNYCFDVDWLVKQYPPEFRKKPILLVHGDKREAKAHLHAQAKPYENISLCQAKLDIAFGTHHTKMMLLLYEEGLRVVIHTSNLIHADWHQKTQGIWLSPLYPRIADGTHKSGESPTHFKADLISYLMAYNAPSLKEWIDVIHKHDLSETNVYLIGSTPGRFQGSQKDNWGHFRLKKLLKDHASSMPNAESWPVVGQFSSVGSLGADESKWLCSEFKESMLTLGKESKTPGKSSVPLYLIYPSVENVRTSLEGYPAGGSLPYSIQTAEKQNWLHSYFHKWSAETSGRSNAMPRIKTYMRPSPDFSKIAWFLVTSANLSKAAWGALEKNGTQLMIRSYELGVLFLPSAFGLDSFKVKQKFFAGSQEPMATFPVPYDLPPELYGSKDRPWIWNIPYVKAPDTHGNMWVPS

CD-45 associated PTP = conditions: cited from earlier work

T1 sequence (Q9NUW8 whole entry): as the sequence (Q9NUW8 whole entry H493R) above, with R493H counted along it

| SMILES | concentration at which Tdp1 is inhibited (in words) (Tdp1 [1]) | Tdp1 inhibition (in words) (Tdp1 [3]) | accumulation of the covalent Tdp1-DNA intermediate (H493R Tdp1 mutant) | Tdp1 inhibition (in words) (Tdp1 [2]) | also measured |
| --- | --- | --- | --- | --- | --- |
| [O]=[V]([O-])([O-])[O-] [vanadate] | millimolar concentrations | – | – | – | Tdp1 inhibition potency (in words) (Tdp1 [2]; AlphaScreen assay, 384-well, Fig. 3C): inhibition in the sub-millimolar range |
| CN(N=O)c1ccc(O)c(O)c1 [methyl-3,4-dephostatin] | – | sub-micromolar concentration | completely prevented | sub-micromolar concentration | inhibition of CD-45 associated PTP (CD-45 associated PTP): does not inhibit |
| [O]=[W](=[O])([O-])[O-] [tungstate] | millimolar concentrations | – | – | – | – |
| N=C(N)c1ccc(-c2ccc(-c3ccc(C(=N)N)cc3)o2)cc1 [Furamidine, furamidine] | micromolar concentrations | – | – | – | – |
| CN(N=O)c1cc(O)ccc1O [dephostatin] | – | only a trace level of inhibition | much weaker effect | only trace inhibition | Tdp1 inhibition (in words) (Tdp1 [3]; listed as Dephostatin): only trace inhibition; effect on binding of the Tdp1 DNA substrate (DNA trapping) (H493R Tdp1 mutant; SCAN1 Tdp1 mutant): almost no effect |
